Laboratory results: paper PMC10913730, “Antimicrobial activity of a natural compound and analogs against multi-drug-resistant Gram-positive pathogens” (Microbiology Spectrum, 2024)
Values after ≈ are worked out from the molar mass of the structure shown. Like-named read-outs stand apart in the source and are kept apart here.

How the values were obtained:
[1] = pH and Ka of 10-g/L aqueous solutions (pH meter); format: physicochemical; conditions: 10-g/L solution in distilled, deionized water
MRSA isolates = assay: MIC/MBC, CLSI broth microdilution, MRSA isolates; format: cell-based, Staphylococcus aureus
[2] = system: Staphylococcus epidermidis isolates; assay: microbe, parasite or virus in culture; format: cell-based; conditions: 21 Staphylococcus epidermidis isolates
Enterococcus faecalis = assay: MIC/MBC against Enterococcus faecalis; format: cell-based
Streptococcus pyogenes = assay: MIC/MBC against Streptococcus pyogenes; format: cell-based; conditions: for MBC: Streptococcus pyogenes
Pseudomonas aeruginosa = assay: MIC against Pseudomonas aeruginosa; format: cell-based
[3] = system: MRSA isolate SAD05 biofilms; format: cell-based, Staphylococcus aureus
[4] = system: human dermal fibroblast (HDF) cells; assay: alamarBlue cell viability assay, HDF; conditions: HDFs, 24-hour incubation, non-linear regression
[5] = system: human bronchial epithelial (16HBE) cells; assay: alamarBlue cell viability assay, 16HBE; conditions: 24-hour incubation, non-linear regression
[6] = system: erythrocytes (sheep blood); assay: Hemolytic activity against sheep erythrocytes; conditions: higher than MIC90
[7] = Staphylococcus aureus, MRSA, pH 5.5, MRSA 0606, pH 5.5
[8] = Staphylococcus aureus, MRSA, pH 5.5, MRSA 0608, pH 5.5
[9] = Staphylococcus aureus, MRSA, pH 5.5, MRSA 0634, pH 5.5
[10] = Staphylococcus aureus, MRSA, pH 5.5, MRSA 0641, pH 5.5
[11] = Staphylococcus aureus, MRSA, pH 5.5, MRSA 0646, pH 5.5
[12] = Staphylococcus aureus, MRSA, pH 5.5, TCH 1516, pH 5.5
[13] = Staphylococcus aureus, MRSA, pH 6.5, MRSA 0606, pH 6.5
[14] = Staphylococcus aureus, MRSA, pH 6.5, MRSA 0608, pH 6.5
[15] = Staphylococcus aureus, MRSA, pH 6.5, MRSA 0634, pH 6.5
[16] = Staphylococcus aureus, MRSA, pH 6.5, MRSA 0641, pH 6.5
[17] = Staphylococcus aureus, MRSA, pH 6.5, MRSA 0646, pH 6.5
[18] = Staphylococcus aureus, MRSA, pH 6.5, TCH 1516, pH 6.5
[19] = ATCC49532, Enterococcus faecalis (ATCC 49532)
[20] = ATCC51575, Enterococcus faecalis (ATCC 51575)
[21] = Streptococcus pyogenes (NR1571)

Oc1c(Br)cc(Br)cc1-c1cc(Br)cc(Br)c1O [C58, MC21-A]
acid dissociation constant (Ka) [1]: 1.26 × 10^−12
pH of solution ([1]; room temperature): 6.80
MBC (MRSA isolates; MRSA 0606, pH 7.4): 6 µg/mL (≈ 12 µM)
MIC (MRSA isolates; MRSA 0606, pH 7.4): 2 µg/mL (≈ 3.99 µM)
MBC (MRSA isolates; MRSA 0608, pH 7.4): 4 µg/mL (≈ 7.97 µM)
MIC (MRSA isolates; MRSA 0608, pH 7.4): 2 µg/mL (≈ 3.99 µM)
MBC (MRSA isolates; MRSA 0634, pH 7.4): 2 µg/mL (≈ 3.99 µM)
MIC (MRSA isolates; MRSA 0634, pH 7.4): 2 µg/mL (≈ 3.99 µM)
MBC (MRSA isolates; MRSA 0641, pH 7.4): 4 µg/mL (≈ 7.97 µM)
MIC (MRSA isolates; MRSA 0641, pH 7.4): 2 µg/mL (≈ 3.99 µM)
MBC (MRSA isolates; MRSA 0646, pH 7.4): 4 µg/mL (≈ 7.97 µM)
MIC (MRSA isolates; MRSA 0646, pH 7.4): 2 µg/mL (≈ 3.99 µM)
MIC90 (MRSA isolates; Staphylococcus aureus, MRSA): 2 µg/mL (≈ 3.99 µM)
MBC (MRSA isolates; [7]): 0.5 µg/mL (≈ 0.996 µM)
MIC (MRSA isolates; [7]): 0.5 µg/mL (≈ 0.996 µM)
MBC (MRSA isolates; [8]): 0.5 µg/mL (≈ 0.996 µM)
MIC (MRSA isolates; [8]): 0.5 µg/mL (≈ 0.996 µM)
MBC (MRSA isolates; [9]): 0.5 µg/mL (≈ 0.996 µM)
MIC (MRSA isolates; [9]): 0.5 µg/mL (≈ 0.996 µM)
MBC (MRSA isolates; [10]): 0.5 µg/mL (≈ 0.996 µM)
MIC (MRSA isolates; [10]): 0.5 µg/mL (≈ 0.996 µM)
MBC (MRSA isolates; [11]): 1 µg/mL (≈ 1.99 µM)
MIC (MRSA isolates; [11]): 0.5 µg/mL (≈ 0.996 µM)
MBC (MRSA isolates; [12]): 1 µg/mL (≈ 1.99 µM)
MIC (MRSA isolates; [12]): 1 µg/mL (≈ 1.99 µM)
MBC (MRSA isolates; Staphylococcus aureus, MRSA, pH 5.5, read-out: Average MBC, average of six MRSA isolates, pH 5.5): 0.67 µg/mL (≈ 1.34 µM)
MIC (MRSA isolates; Staphylococcus aureus, MRSA, pH 5.5, read-out: Average MIC, average of six MRSA isolates, pH 5.5): 0.58 µg/mL (≈ 1.16 µM)
MBC (MRSA isolates; [13]): 2 µg/mL (≈ 3.99 µM)
MIC (MRSA isolates; [13]): 1 µg/mL (≈ 1.99 µM)
MBC (MRSA isolates; [14]): 2 µg/mL (≈ 3.99 µM)
MIC (MRSA isolates; [14]): 2 µg/mL (≈ 3.99 µM)
MBC (MRSA isolates; [15]): 2 µg/mL (≈ 3.99 µM)
MIC (MRSA isolates; [15]): 1 µg/mL (≈ 1.99 µM)
MBC (MRSA isolates; [16]): 2 µg/mL (≈ 3.99 µM)
MIC (MRSA isolates; [16]): 1 µg/mL (≈ 1.99 µM)
MBC (MRSA isolates; [17]): 2 µg/mL (≈ 3.99 µM)
MIC (MRSA isolates; [17]): 1 µg/mL (≈ 1.99 µM)
MBC (MRSA isolates; [18]): 2 µg/mL (≈ 3.99 µM)
MIC (MRSA isolates; [18]): 1 µg/mL (≈ 1.99 µM)
MBC (MRSA isolates; Staphylococcus aureus, MRSA, pH 6.5, read-out: Average MBC, average of six MRSA isolates, pH 6.5): 2 µg/mL (≈ 3.99 µM)
MIC (MRSA isolates; Staphylococcus aureus, MRSA, pH 6.5, read-out: Average MIC, average of six MRSA isolates, pH 6.5): 1.2 µg/mL (≈ 2.39 µM)
MBC (MRSA isolates; Staphylococcus aureus, MRSA, pH 7.4, read-out: Average MBC, average of six MRSA isolates, pH 7.4): 4 µg/mL (≈ 7.97 µM)
MIC (MRSA isolates; Staphylococcus aureus, MRSA, pH 7.4, read-out: Average MIC, average of six MRSA isolates, pH 7.4): 2 µg/mL (≈ 3.99 µM)
MBC (MRSA isolates; Staphylococcus aureus, MRSA, read-out: MBC90, 39 evaluated MRSA isolates, CLSI broth microdilution): 4 µg/mL (≈ 7.97 µM)
MBC (MRSA isolates; TCH 1516, pH 7.4): 4 µg/mL (≈ 7.97 µM)
MIC (MRSA isolates; TCH 1516, pH 7.4): 2 µg/mL (≈ 3.99 µM)
change of MIC and MBC with the reduction in pH (MRSA isolates; six MRSA isolates, pH lowered to 5.5): decreased as much as fourfold
MBC range [2]: 4 to 12 µg/mL
MIC range [2]: 1 to 4 µg/mL
MBC ([2]; read-out: MBC90): 8 µg/mL (≈ 15.9 µM)
MIC90 ([2]; read-out: MIC90): 2 µg/mL (≈ 3.99 µM)
MBC (Enterococcus faecalis; [19]): 12 µg/mL (≈ 23.9 µM)
MIC (Enterococcus faecalis; [19]): 6 µg/mL (≈ 12 µM)
MBC (Enterococcus faecalis; [20]): 12 µg/mL (≈ 23.9 µM)
MIC (Enterococcus faecalis; [20]): 6 µg/mL (≈ 12 µM)
MIC (Streptococcus pyogenes; [21]): 4 µg/mL (≈ 7.97 µM)
MIC (Streptococcus pyogenes; Streptococcus pyogenes (NR1575), read-out: MIC): 4 µg/mL (≈ 7.97 µM)
MBC (Streptococcus pyogenes; [21]): 16 µg/mL (≈ 31.9 µM)
MBC (Streptococcus pyogenes; Streptococcus pyogenes (NR1575)): 12 µg/mL (≈ 23.9 µM)
MIC (Pseudomonas aeruginosa; Pseudomonas aeruginosa (PAM57-15)): > 32 µg/mL
MIC (Pseudomonas aeruginosa; Pseudomonas aeruginosa (PAO1)): > 32 µg/mL
concentration that completely eradicated biofilms ([3]; 72-hour biofilms of SAD05, MBEC assay): 8 µg/mL
biofilm biomass, crystal violet assay ([3]; SAD05 biofilms, compared with vancomycin): lower biomass
LD50 [4]: 71.3 µg/mL
LD50 [5]: 59.3 µg/mL
concentration where hemolytic activity begins relative to MIC90 [6]: 32 fold
